In US20240366539A1, “METHODS FOR TREATING AUTISM SPECTRUM DISORDERS” (INSTITUT NATIONAL DE LA SANTÉ ET DE LA RECHERCHE MÉDICALE, priority 2021, published 2024):
Entries after “also recorded” stand apart in the source; their conditions may differ.

Assays:
Oprm1^−/− mice = experiment: Motor stereotypies; assay type: in vivo, mouse
Method: (§1) Mice were treated with vehicle (NaCl 0.9%; ip, 10 or 20 ml/kg), NaBr (Sigma-Aldrich, Saint-Quentin Fallavier, France) administered either chronically (once a day, 10, 30, 70, 125, 250 and 500 mg/kg; i.p. or per os, in a volume of 20 ml/kg—except for combination with VU0155041: […]) or acutely (250 mg/kg, 20 ml/kg), KBr (Sigma-Aldrich, Saint-Quentin Fallavier, France; 145 mg/kg; i.p., 20 ml/kg), bumetanide (R&D systems, Minneapolis, USA, 0.5 and 2 mg/kg; i.p., 20 ml/kg) or VU0155041 (Cayman Chemicals, Ann Arbor, USA, once a day, i.p., 1 mg/kg, 10 ml/kg). […] When treatment was given chronically, behavioral testing started 8 days after beginning of daily administration. Treatment was maintained for 8 to 18 consecutive days (see timelines in FIGS. 1 and 4), allowing thorough behavioral phenotyping. On testing days, or when treatment was given acutely, drugs (or vehicle) were administered 30 min before behavioral assays.
Motor stereotypies. To detect motor stereotypies in mutant versus wild-type animals, mice were individually placed in clear standard home cages (21×11×17 cm) filled with 3-cm deep fresh sawdust for 10 min (64). Light intensity was set at 30 lux. Trained experimenters scored numbers of head shakes, as well as rearing, burying, grooming, circling episodes and total time spent burying by direct observation.

Shank3^Δex13-16−/− mice [1] = experiment: Direct social interaction test; assay type: in vivo, mouse; details: Shank3Δex13-16−/− mice
Method: as §1
Direct social interaction test. On testing day, a pair of unfamiliar mice (not cage mates, age-, sex- and treatment-matched) was introduced in each arena for 10 min (15 lx). Each arena received a black plastic floor (transparent to infrared). […] The mean duration of nose and paw contacts was calculated from previous data (61-63).
(§2) To this purpose, we evaluated the effects of chronic NaBr administration at the dose of 250 mg/kg on autism-sensitive behaviors in these lines (FIG. 3A).

Fmr1^−/− mice = experiment: Y-maze exploration; assay type: in vivo, mouse; details: chronic NaBr 250 mg/kg once daily
Method: as §1
(§3) Y-maze exploration. Spontaneous alternation behavior was used to assess perseverative behavior (65-67). Each Y-maze consisted of three connected Plexiglas arms (15×15×17 cm) covered with distinct wall patterns (15 lx). Floors were covered with lightly sprayed fresh sawdust to limit anxiety.
as §2

Shank3^Δex13-16−/− mice [2] = experiment: Y-maze exploration; assay type: in vivo, mouse; details: Shank3Δex13-16−/− mice; chronic NaBr 250 mg/kg once daily
Method: as §1, §3, §2

rat mGlu4 receptor = target: T1, rat mGlu4 receptor (Rattus norvegicus, UniProt P31423); experiment: Calcium mobilization assay, mGlu4 signaling under glutamate stimulation; assay type: cell-based
T1 construct: expressed in transfected cells
T1 sequence (P31423 33-912): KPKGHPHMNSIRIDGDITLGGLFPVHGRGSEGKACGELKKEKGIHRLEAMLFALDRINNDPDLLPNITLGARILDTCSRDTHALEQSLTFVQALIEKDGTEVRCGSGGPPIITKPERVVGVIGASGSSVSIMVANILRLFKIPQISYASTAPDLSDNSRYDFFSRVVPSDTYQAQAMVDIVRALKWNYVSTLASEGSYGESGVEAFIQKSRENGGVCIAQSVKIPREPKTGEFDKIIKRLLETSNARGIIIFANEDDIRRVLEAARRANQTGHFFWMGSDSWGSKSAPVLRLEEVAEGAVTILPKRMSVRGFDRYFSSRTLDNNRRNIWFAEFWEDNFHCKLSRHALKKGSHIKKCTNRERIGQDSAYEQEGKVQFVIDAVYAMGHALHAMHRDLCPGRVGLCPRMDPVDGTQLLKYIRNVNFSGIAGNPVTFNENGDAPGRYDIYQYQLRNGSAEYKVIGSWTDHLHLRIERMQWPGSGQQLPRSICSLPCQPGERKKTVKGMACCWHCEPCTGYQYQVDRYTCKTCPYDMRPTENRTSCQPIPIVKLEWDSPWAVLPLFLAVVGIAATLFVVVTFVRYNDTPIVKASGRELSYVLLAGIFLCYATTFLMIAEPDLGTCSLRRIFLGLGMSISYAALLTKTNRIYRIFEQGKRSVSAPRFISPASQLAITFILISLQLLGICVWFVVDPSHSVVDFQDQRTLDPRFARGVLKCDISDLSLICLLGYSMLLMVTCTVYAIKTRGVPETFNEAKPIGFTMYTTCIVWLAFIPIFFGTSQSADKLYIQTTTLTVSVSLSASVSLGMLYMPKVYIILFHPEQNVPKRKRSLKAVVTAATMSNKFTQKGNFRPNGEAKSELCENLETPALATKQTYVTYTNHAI
Method: Human embryonic kidney (HEK) 293 cells were transiently transfected with rat mGlu4 receptor by electroporation together with a chimeric Gi/Gq protein to allow phospholipase activation and EAAC1, a glutamate transporter, to avoid influence of extracellular glutamate. For calcium mobilization, cells were seeded in a PLO-coated, black-walled, clear-bottomed. 96-well plate (Greiner Bio-One) at the density of 100,000 cells per well and for IPOne assay in a PLO-coated black 96-well plate (Greiner Bio-One) at the density of 50,000 cells per well. Cells were cultured in DMEM (Gibco™, Life Technologies), supplemented with 10% fetal bovine serum. Medium was changed by GlutaMAX (Gibco™, Life Technologies) to reduce extracellular glutamate concentration 3 h before experiment.
Chloride and bromide ion concentrations in the buffers used for in vitro experiments were chosen for best matching physiological conditions. It was previously shown that the total amount of halogen (chloride and bromide ions) in the cerebrospinal fluid and serum can reach 120-130 mM (69, 70) and that bromide is able to substitute up to 30% of chloride concentration (71), leading to a theoretical concentration of 91 mM chloride and 36 mM bromide. We thus chose the dose of 100 mM chloride as physiological control (complemented with gluconate NaC6H11O7 to maintain equivalent osmolarity between buffers (56)), and added or not 50 mM chloride or bromide to assess their effects in vitro. Chemicals were purchased from Sigma-Aldrich (Merck, L'Isle D'Abeau Chesnes, France). The pH of all buffers was adjusted to 7.4 before experiments. […]
Calcium mobilization assay: 24 h after transfection, cells were loaded with 1 μM calcium-sensitive fluorescent dye (Fluo-4 AM; Invitrogen, Life Technologies) diluted in fresh C1^− buffer (154.6 mM) for 1 h at 37° C. and 5% CO2. […] Ca^2+ release was determined using μCell FDSS (Hamamatsu Photonics). Fluoresence was recorded for 60 s at 480 nm excitation and 540 nm emission after 20 s record of baseline.
Data were analyzed using Prism 6 software (GraphPad Software, San Diego, CA, USA). […] Statistical differences between pEC50, ΔpEC50 and Emax were determined using a one-way analysis of variance followed by Tukey's post-test.
We measured mGlu4 signaling under glutamate stimulation in HEK293T cells transiently expressing mGlu4 receptors and Gαqi9, a Gi/Gq chimeric G-protein (57) that allows mGlu4 to activate the phosphoinositide pathway. Receptor activation was then evaluated by measuring intracellular Ca^2+ release or inositol monophosphate (IP1, FIG. 5A). […]

[3] = Oprm1+/+ mice, chronic NaBr 10-500 mg/kg
[4] = Oprm1−/− mice, chronic NaBr 10-500 mg/kg or bumetanide 0.5 and 2 mg/kg
[5] = chronic NaBr 250 mg/kg once daily
[6] = one week after interruption of NaBr 250 mg/kg

## [Br-].[Na+] [NaBr, sodium bromide]
Oprm1^−/− mice; [3]
  number of grooming episodes in wild-type controls: dose-dependently increased the number of grooming episodes; also recorded: at 500 mg/kg increased the frequency of grooming episodes and head shakes
  number of head shakes in wild-type controls: dose-dependently increased; also recorded: at 500 mg/kg increased the frequency of grooming episodes and head shakes
Oprm1^−/− mice; [4]
  number of head shakes: decreased under NaBr treatment since the lowest dose; also recorded: less consistently reduced the number of head shakes (doses over 125 mg/kg)
  stereotypic circling episodes: decreased under NaBr treatment since the lowest dose
Oprm1^−/− mice; both mouse lines (Oprm1−/− and Oprm1+/+), chronic NaBr or bumetanide
  number of rearing episodes: increased the number of rearing episodes in a dose-dependent manner
Shank3^Δex13-16−/− mice [1]; [5]
  duration of nose contacts: restored the duration of nose
  duration of paw contacts: restored
  grooming after social contact: suppressed grooming after social contact
  number of following episodes: normalized the number of following episodes
Shank3^Δex13-16−/− mice [1]; [6]
  duration of paw contacts: no effect of previous bromide treatment was longer detected
  grooming after social contact: remained efficiently suppressed
Fmr1^−/− mice
  perseverative same arm returns: suppressed under chronic bromide
Shank3^Δex13-16−/− mice [2]
  perseverative same arm returns: suppressed under chronic bromide
Rat mGlu4 receptor; HEK293 cells, mGlu4 + Gαqi9, addition of 50 mM bromide versus physiological chloride (100 mM Cl− + 50 mM gluconate)
  increase in glutamate pEC50: 0.73±0.05 log
Rat mGlu4 receptor; HEK293 cells, mGlu4 + Gαqi9, compared with +50 mM Cl−
  ΔpEC50 of glutamate, bromide versus equivalent concentration of chloride: 0.27±0.04
Rat mGlu4 receptor; HEK293 cells, mGlu4 + Gαqi9, glutamate, bromide versus physiological chloride
  rise in maximal mGlu4-triggered calcium release (Emax): 65±9%
Rat mGlu4 receptor; calcium mobilization assay, 100 mM Cl− + 50 mM Br−, broader effects than chloride ions on pEC50 and Emax
  modulation of mGlu4 (PAM behaviour): behave as PAM of mGlu4
